Reference: patent US20220169654A1, “New Organic Compounds” (Servier Pharmaceuticals LLC, priority 2020, published 2022)
pIC50: −log10 of the molar value.

Assays:
HCT116 MTAP−/− = assay: Inhibition of cellular proliferation, 4 days, Cell Titer Glo, HCT116 MTAP−/−; type: cell-based; conditions: Homo sapiens, HCT-116, 96 h, IC50 bin with Max Inh., read-out: 4 Day Relative Growth Inhibition (MTAP −/−)
Method in brief: (§1)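 Isogenic HCT116 pair differing only in MTAP status, plated 24 h before treatment with 10-point 3-fold dilutions; 4 days at 37° C./5% CO2. Cell Titer Glo luminescence, blank-subtracted and normalised to 0.2% DMSO control, gives percentage proliferation vs log molar concentration for IC50.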

MAT2A homodimer = target: T1, MAT2A homodimer (Homo sapiens, UniProt P31153); assay: MAT2A inhibition (biochemical, liberated phosphate, PiColorLock Gold); conditions: recombinant MAT2A homodimer; IC50 bin with Max Inh.; read-out: Enzyme Inhibition Bin
T1 construct: inferred from Ni sepharose purification with imidazole elution; made in house; host or cells: Sf9 insect cells, baculovirus (Bac to Bac, pFASTBAC1)
T1 sequence (P31153 whole entry): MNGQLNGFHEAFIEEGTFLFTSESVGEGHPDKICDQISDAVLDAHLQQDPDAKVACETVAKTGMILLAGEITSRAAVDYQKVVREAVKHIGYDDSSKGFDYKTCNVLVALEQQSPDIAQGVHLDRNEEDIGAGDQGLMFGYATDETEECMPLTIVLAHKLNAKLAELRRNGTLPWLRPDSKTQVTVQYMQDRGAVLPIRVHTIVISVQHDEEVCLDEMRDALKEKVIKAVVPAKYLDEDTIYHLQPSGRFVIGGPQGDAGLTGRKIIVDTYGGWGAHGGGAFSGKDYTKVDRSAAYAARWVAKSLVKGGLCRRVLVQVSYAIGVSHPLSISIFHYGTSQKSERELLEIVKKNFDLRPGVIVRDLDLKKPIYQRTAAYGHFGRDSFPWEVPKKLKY
Method in brief: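 Baculovirus/Sf9-expressed, Ni-purified MAT2A (4 μg/mL) preincubated with compound 60 min at 25 °C in Tris pH 8.0/KCl/MgCl2 buffer. Reaction started with 500 μM ATP and 400 μM L-methionine (substrate-mix concentrations), run 60 min at 25 °C. Phosphate measured colorimetrically against a phosphate standard curve to give IC50.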

HCT116 MTAP+/+ = assay: Inhibition of cellular proliferation, 4 days, Cell Titer Glo, HCT116 MTAP+/+; type: cell-based; conditions: Homo sapiens, HCT-116, 96 h, IC50 bin with Max Inh., read-out: 4 Day Relative Growth Inhibition (MTAP +/+)
Method in brief: as §1

[1] = tested on: SAM in HCT116 human colon carcinoma cell line with MTAP gene deleted (MTAP −/−); assay: Cellular assay of target engagement (SAM), LC-MS/MS, 72 hrs; type: cell-based; conditions: HCT-116, IC50 bin with Max Inh., read-out: Cell 72 h SAM Inhibition (MTAP −/−)
Method in brief: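 MTAP-deleted HCT116 cells plated 24 h, then given 10-point 3-fold dilutions for 72 hrs at 37° C. Intracellular SAM extracted in cold 80% methanol with 1M acetic acid and d3-SAM standard, quantified by LC-MS/MS (MRM m/z 399.2→250.1); IC50 derived.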

| Compound | pIC50 (HCT116 MTAP−/−) | pIC50 (MAT2A homodimer) | pIC50 (HCT116 MTAP+/+) | pIC50 [1] |
| --- | --- | --- | --- | --- |
| Cn1cc2cc(-n3nc4ccn(CC5CC5)c4c(-c4ccc(Cl)cc4)c3=O)ccc2n1 [Example 112, 4-(4-chlorophenyl)-5-(cyclopropylmethyl)-2-(2-methyl-2H-indazol-5-yl)-2,5-dihydro-3H-pyrrolo[3,2-c]pyridazin-3-one] | > 7.00 | > 7.00 | < 6.00 | > 7.00 |
| Cn1cc2cc(-n3nc4c(c(-c5ccc(C6CC6)nc5)c3=O)n(CC3CC3)c(=O)n4C)ccc2n1 [Example 198, 5-(cyclopropylmethyl)-4-(6-cyclopropylpyridin-3-yl)-7-methyl-2-(2-methyl-2H-indazol-5-yl)-2,7-dihydro-3H-imidazo[4,5-c]pyridazine-3,6(5H)-dione] | > 7.00 | > 7.00 | < 6.00 | > 7.00 |
| Cn1cc2cc(-n3nc4c(C#N)cn(CC5CC5)c4c(-c4ccc([C@@H]5CC5(F)F)nc4)c3=O)ccc2n1 [Example 252, (S)-5-(cyclopropylmethyl)-4-(6-(2,2-difluorocyclopropyl)pyridin-3-yl)-2-(2-methyl-2H-indazol-5-yl)-3-oxo-3,5-dihydro-2H-pyrrolo[3,2-c]pyridazine-7-carbonitrile] | 6.00 to 7.00 | > 7.00 | < 6.00 | 6.00 to 7.00 |
| Cn1cc2cc(-n3nc4c(C(F)F)cn(CC5CC5)c4c(-c4ccc(C5CC5)nc4)c3=O)ccc2n1 [Example 240, 5-(cyclopropylmethyl)-4-(6-cyclopropylpyridin-3-yl)-7-(difluoromethyl)-2-(2-methyl-2H-indazol-5-yl)-2,5-dihydro-3H-pyrrolo[3,2-c]pyridazin-3-one] | > 7.00 | > 7.00 | 6.00 to 7.00 | > 7.00 |
| Cn1cc2cc(-n3nc4ccn(CC5CC5)c4c(-c4ccc(C#N)nc4)c3=O)ccc2n1 [Example 153, 5-(5-(cyclopropylmethyl)-2-(2-methyl-2H-indazol-5-yl)-3-oxo-3,5-dihydro-2H-pyrrolo[3,2-c]pyridazin-4-yl)picolinonitrile] | < 6.00 | 6.00 to 7.00 | < 6.00 | 6.00 to 7.00 |
| [2H]C([2H])([2H])n1cc2cc(-n3nc4c(C(=O)NC)cn(CC5CC5)c4c(-c4ccc(C5CC5)nc4)c3=O)ccc2n1 [Example 172, 5-(cyclopropylmethyl)-4-(6-cyclopropylpyridin-3-yl)-N-methyl-2-(2-(methyl-d3)-2H-indazol-5-yl)-3-oxo-3,5-dihydro-2H-pyrrolo[3,2-c]pyridazine-7-carboxamide] | > 7.00 | > 7.00 | < 6.00 | > 7.00 |
| Cn1cc2cc(-n3nc4c(C(N)=O)cn(CC5CC5)c4c(-c4ccc(C5CC5)cc4)c3=O)ccc2n1 [Example 166, 5-(cyclopropylmethyl)-4-(4-cyclopropylphenyl)-2-(2-methyl-2H-indazol-5-yl)-3-oxo-3,5-dihydro-2H-pyrrolo[3,2-c]pyridazine-7-carboxamide] | > 7.00 | > 7.00 | < 6.00 | > 7.00 |
| [2H]C([2H])([2H])Oc1ccc(-c2c(=O)n(-c3ccc4nn(C)cc4c3)nc3c(C(N)=O)cn(CC4CC4)c23)cc1 [Example 173, 5-(cyclopropylmethyl)-4-(4-(methoxy-d3)phenyl)-2-(2-methyl-2H-indazol-5-yl)-3-oxo-3,5-dihydro-2H-pyrrolo[3,2-c]pyridazine-7-carboxamide] | > 7.00 | > 7.00 | < 6.00 | > 7.00 |
| C=C(CF)c1ccc(-c2c(=O)n(-c3ccc4nn(C)cc4c3)nc3c(C#N)cn(CC4CC4)c23)cn1 [Example 257, 5-(cyclopropylmethyl)-4-(6-(3-fluoroprop-1-en-2-yl)pyridin-3-yl)-2-(2-methyl-2H-indazol-5-yl)-3-oxo-3,5-dihydro-2H-pyrrolo[3,2-c]pyridazine-7-carbonitrile] | 6.00 to 7.00 | > 7.00 | < 6.00 | 6.00 to 7.00 |
| [2H]C([2H])([2H])Oc1ccc(-n2nc3c(C#N)cn(CC4CC4)c3c(-c3ccc(C4CC4)nc3)c2=O)cc1 [Example 124, 5-(cyclopropylmethyl)-4-(6-cyclopropylpyridin-3-yl)-2-(4-(methoxy-d3)phenyl)-3-oxo-3,5-dihydro-2H-pyrrolo[3,2-c]pyridazine-7-carbonitrile] | 6.00 to 7.00 | > 7.00 | < 6.00 | > 7.00 |
| CNC(=O)c1cn(CC2CC2)c2c(-c3ccc(C)nc3)c(=O)n(-c3ccc4nn(C)cc4c3)nc12 [Example 177, 5-(cyclopropylmethyl)-N-methyl-2-(2-methyl-2H-indazol-5-yl)-4-(6-methylpyridin-3-yl)-3-oxo-3,5-dihydro-2H-pyrrolo[3,2-c]pyridazine-7-carboxamide] | 6.00 to 7.00 | > 7.00 | < 6.00 | > 7.00 |
| Cn1cc2cc(-n3nc4c(C#N)cn(CC5CC5)c4c(-c4ccc(Cl)cc4)c3=O)ccc2n1 [Example 139, 4-(4-chlorophenyl)-5-(cyclopropylmethyl)-2-(2-methyl-2H-indazol-5-yl)-3-oxo-3,5-dihydro-2H-pyrrolo[3,2-c]pyridazine-7-carbonitrile] | > 7.00 | > 7.00 | > 7.00 | > 7.00 |
| CCc1ccc(-c2c(=O)n(-c3ccc4nc(C)n(C)c4c3)nc3c(C#N)cn(CC4CC4)c23)cn1 [Example 152, 5-(cyclopropylmethyl)-2-(1,2-dimethyl-1H-benzo[d]imidazol-6-yl)-4-(6-ethylpyridin-3-yl)-3-oxo-3,5-dihydro-2H-pyrrolo[3,2-c]pyridazine-7-carbonitrile] | > 7.00 | > 7.00 | < 6.00 | > 7.00 |
| Cc1nn(CC2CC2)c2c(-c3ccc(OC(F)F)cc3)c(=O)n(-c3ccc4nn(C)cc4c3)nc12 [Example 212, 1-(cyclopropylmethyl)-7-(4-(difluoromethoxy)phenyl)-3-methyl-5-(2-methyl-2H-indazol-5-yl)-1,5-dihydro-6H-pyrazolo[4,3-c]pyridazin-6-one] | > 7.00 | > 7.00 | > 7.00 | > 7.00 |
| Cc1ccc(-c2c(=O)n(-c3ccc4nc(C)n(C)c4c3)nc3ccn(CC4CC4)c23)cn1 [Example 141, 5-(cyclopropylmethyl)-2-(1,2-dimethyl-1H-benzo[d]imidazol-6-yl)-4-(6-methylpyridin-3-yl)-2,5-dihydro-3H-pyrrolo[3,2-c]pyridazin-3-one] | > 7.00 | > 7.00 | 6.00 to 7.00 | > 7.00 |
| Cn1cc2cc(-n3nc4c(c(-c5ccc(C6CC6)nc5)c3=O)N(CC3CC3)CC4(C)C)ccc2n1 [Example 260, 5-(cyclopropylmethyl)-4-(6-cyclopropylpyridin-3-yl)-7,7-dimethyl-2-(2-methyl-2H-indazol-5-yl)-2,5,6,7-tetrahydro-3H-pyrrolo[3,2-c]pyridazin-3-one] | < 6.00 | 5.00 to 6.00 | < 6.00 | < 6.00 |
| Cc1nc2ccc(-n3nc4ccn(CC5CC5)c4c(-c4ccc(C5CC5)nc4)c3=O)cc2n1C [Example 156, 5-(cyclopropylmethyl)-4-(6-cyclopropylpyridin-3-yl)-2-(1,2-dimethyl-1H-benzo[d]imidazol-6-yl)-2,5-dihydro-3H-pyrrolo[3,2-c]pyridazin-3-one] | > 7.00 | > 7.00 | > 7.00 | > 7.00 |
| COc1ccc(-c2c(=O)n(-c3ccc4nn(C)cc4c3)nc3ccn(CC4CC4)c23)cn1 [Example 110, 5-(cyclopropylmethyl)-4-(6-methoxypyridin-3-yl)-2-(2-methyl-2H-indazol-5-yl)-2,5-dihydro-3H-pyrrolo[3,2-c]pyridazin-3-one] | > 7.00 | > 7.00 | < 6.00 | > 7.00 |
